In patent publication US20260022142A1, “MACROCYCLIC IMMUNOMODULATORS” (Bristol-Myers Squibb Company, priority 2022, published 2026):
Numbered stars: 1 amine (or outer) side, 2 acyl side, 3 side chain; on linkers, the order of the positions; unused ones are H or OH. Bridge positions count the residues as written; N and C are the ends. Square brackets hold non-standard residues; d marks the D form. Peptide text beside a SMILES is read from it. * marks the point of attachment. ξ: configuration not given here. X2 = CC(C)C[C@H](N[*:1])C(=O)C[C@H](C(=O)[*:2])C(C)C; Phe(3-CF3) = N[C@@H](Cc1cccc(C(F)(F)F)c1)C(=O)O; Phe(4-COOH) = N[C@@H](Cc1ccc(C(=O)O)cc1)C(=O)O; Bip = N[C@@H](Cc1ccc(-c2ccccc2)cc1)C(=O)O; Phe(3-Me) = Cc1cccc(C[C@H](N)C(=O)O)c1; Phe(4-F) = N[C@@H](Cc1ccc(F)cc1)C(=O)O; Val(3-OH) = CC(C)(O)[C@H](N)C(=O)O; hCit = NC(=O)NCCCC[C@H](N)C(=O)O; 4Pal = N[C@@H](Cc1ccncc1)C(=O)O; 2Thi = N[C@@H](Cc1cccs1)C(=O)O; Cha = N[C@@H](CC1CCCCC1)C(=O)O; Cit = NC(=O)NCCC[C@H](N)C(=O)O; Ile(3ξ) = CCC(C)[C@H](N)C(=O)O; Thr(3ξ) = CC(O)[C@H](N)C(=O)O; Tle = CC(C)(C)[C@H](N)C(=O)O; 12Ado = NCCCCCCCCCCCC(=O)O; dOrn = NCCC[C@@H](N)C(=O)O; Carboxymethyl = O=C(O)C*; Orn = NCCC[C@H](N)C(=O)O; Aun = NCCCCCCCCCCC(=O)O; Dab = NCC[C@H](N)C(=O)O; Dap = NC[C@H](N)C(=O)O; AEEA = NCCOCCOCC(=O)O

Target: T1, PD-1/PD-L1 interaction (PE-labeled human PD-L1-Ig binding to Jurkat cell line over-expressing human PD-1) (Homo sapiens, UniProt Q15116)
T1 construct: expressed in transfected cells; host or cells: Jurkat
Assay: Jurkat-PD-1 Cell Binding High-Content Screening Assay (CBA)
Format: cell-based
Conditions: Jurkat cell line over-expressing human PD-1; PE-labeled PD-L1-Ig 20 nM final; read-out: Jurkat hPD1-PDL1 IC50
Method in brief: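 Jurkat-hPD-1 cells, DMEM/10% FCS; cpd 2 h 37° C; PE-PD-L1-Ig 20 nM final, 1 h; 4% PFA fix + Hoechst 33342, 3× dPBS wash; high-content imaging read-out.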

T1 sequence (Q15116 25-288): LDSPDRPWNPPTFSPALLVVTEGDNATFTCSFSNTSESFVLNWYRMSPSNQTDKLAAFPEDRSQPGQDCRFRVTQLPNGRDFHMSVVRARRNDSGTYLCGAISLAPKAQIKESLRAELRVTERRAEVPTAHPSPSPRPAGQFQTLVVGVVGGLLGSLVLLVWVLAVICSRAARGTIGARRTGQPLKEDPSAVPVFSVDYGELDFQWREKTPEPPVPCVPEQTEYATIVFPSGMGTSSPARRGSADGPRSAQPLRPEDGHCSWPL

Row | SMILES | IC50 [nM]
1 | Cc1cccc(C[C@@H]2NC(=O)[C@H](CC(=O)O)NC(=O)[C@H](Cc3ccc(OCC(=O)O)cc3)NC(=O)[C@H](CN)NC(=O)CSC[C@@H](C(=O)N[C@@H](CCN)C(=O)NCCOCCOCC(=O)NCCCCCCCCCCC(=O)O)NC(=O)[C@H](CCCNC(=N)N)NC(=O)[C@H](C(C)C)NC(=O)[C@H](CC3CCCCC3)NC(=O)[C@H](CCN)NC(=O)[C@@H](CC(C)C)NC(=O)[C@H](CCCN)NC(=O)[C@H](C(C)C)NC(=O)[C@H](Cc3ccc(-c4ccccc4)cc3)NC(=O)[C@H](C(C)C)NC2=O)c1 [Compound 2552] ({CH2CO}-[Dap]Y(Carboxymethyl)D[Phe(3-Me)]V[Bip]V[Orn][dL][Dab][Cha]VRC[Dab][AEEA][Aun]-OH; thioether N-14) | 9.9
2 | Cc1cccc(C[C@@H]2NC(=O)[C@H](CC(=O)O)NC(=O)[C@H](Cc3ccc(OCC(=O)O)cc3)NC(=O)[C@H](CN)NC(=O)CSC[C@@H](C(=O)N[C@@H](C)C(=O)N[C@@H](CC(=O)O)C(=O)NCCOCCOCC(=O)NCCCCCCCCCCC(=O)O)NC(=O)[C@H]([C@@H](C)O)NC(=O)[C@H](C(C)C)NC(=O)[C@H](CC3CCCCC3)NC(=O)[C@H](CCN)NC(=O)[C@@H](CC(C)C)NC(=O)[C@H](CCCN)NC(=O)[C@H](CCCNC(N)=O)NC(=O)[C@H](Cc3ccc(-c4ccccc4)cc3)NC(=O)[C@H](C(C)C)NC2=O)c1 [Compound 1008] ({CH2CO}-[Dap]Y(Carboxymethyl)D[Phe(3-Me)]V[Bip][Cit][Orn][dL][Dab][Cha]VTCAD[AEEA][Aun]-OH; thioether N-14) | 10.5
3 | CC(C)C[C@H]1NC(=O)[C@H](CCCN)NC(=O)[C@H](C(C)C)NC(=O)[C@H](Cc2ccc(-c3ccccc3)cc2)NC(=O)[C@H](C(C)C)NC(=O)[C@H](Cc2c[nH]c3ccccc23)NC(=O)[C@H](CC(=O)O)NC(=O)[C@H](Cc2ccc(OCC(=O)O)cc2)NC(=O)[C@H](CN)NC(=O)CSC[C@@H](C(=O)NCCOCCOCC(=O)NCCCCCCCCCCC(=O)O)NC(=O)[C@H]([C@@H](C)O)NC(=O)[C@H](C(C)C)NC(=O)[C@H](CC2CCCCC2)NC(=O)[C@H](Cc2cnc[nH]2)NC1=O [Compound 1100] ({CH2CO}-[Dap]Y(Carboxymethyl)DWV[Bip]V[Orn][dL]H[Cha]VTC[AEEA][Aun]-OH; thioether N-14) | 8.8
4 | Cc1cccc(C[C@@H]2NC(=O)[C@H](CC(=O)O)NC(=O)[C@H](Cc3ccncc3)NC(=O)[C@H](Cc3ccc(OCC(=O)O)cc3)NC(=O)CSC[C@@H](C(=O)N[C@@H](CCCNC(=N)N)C(=O)NCCCCCCCCCCC(=O)O)NC(=O)[C@H]([C@@H](C)O)NC(=O)[C@H](C(C)C)NC(=O)[C@H](CC3CCCCC3)NC(=O)[C@H](CCN)NC(=O)[C@@H](CC(C)C)NC(=O)[C@H](CCCN)NC(=O)[C@H](C(C)C)NC(=O)[C@H](Cc3ccc(-c4ccccc4)cc3)NC(=O)[C@H](C(C)C)NC2=O)c1 [Compound 1167] ({CH2CO}-Y(Carboxymethyl)[4Pal]D[Phe(3-Me)]V[Bip]V[Orn][dL][Dab][Cha]VTCR[Aun]-OH; thioether N-14) | 80.1
5 | Cc1cccc(C[C@@H]2NC(=O)[C@H](CC(=O)O)NC(=O)[C@H](Cc3ccc(OCC(=O)O)cc3)NC(=O)[C@H](CN)NC(=O)CSC[C@@H](C(=O)NCCOCCOCC(=O)NCCCCCCCCCCC(=O)O)NC(=O)[C@H]([C@@H](C)O)NC(=O)[C@H](C(C)C)NC(=O)[C@H](CC3CCCCC3)NC(=O)[C@H](CCN)NC(=O)[C@@H](CC(C)C)NC(=O)[C@H](CCCN)NC(=O)[C@H](CCCNC(N)=O)NC(=O)[C@H](Cc3ccc(-c4ccccc4)cc3)NC(=O)[C@H](C(C)C)NC2=O)c1 [Compound 1038] ({CH2CO}-[Dap]Y(Carboxymethyl)D[Phe(3-Me)]V[Bip][Cit][Orn][dL][Dab][Cha]VTC[AEEA][Aun]-OH; thioether N-14) | 20.8
6 | CC(C)C[C@H]1NC(=O)[C@H](CCCN)NC(=O)[C@H](Cc2ccc(O)cc2)NC(=O)[C@H](Cc2ccc(-c3ccccc3)cc2)NC(=O)[C@H](C(C)C)NC(=O)[C@H](Cc2cccc(C(F)(F)F)c2)NC(=O)[C@H](CC(=O)O)NC(=O)[C@H](Cc2ccc(OCC(=O)O)cc2)NC(=O)[C@H](CN)NC(=O)CSC[C@@H](C(=O)N[C@@H](CCN)C(=O)NCCOCCOCC(=O)NCCCCCCCCCCC(=O)O)NC(=O)[C@H](CCCN)NC(=O)[C@H](C(C)C)NC(=O)[C@H](CC2CCCCC2)NC(=O)[C@H](CCN)NC1=O [Compound 1288] ({CH2CO}-[Dap]Y(Carboxymethyl)D[Phe(3-CF3)]V[Bip]Y[Orn][dL][Dab][Cha]V[Orn]C[Dab][AEEA][Aun]-OH; thioether N-14) | 10.3
7 | Cc1cccc(C[C@@H]2NC(=O)[C@H](CC(=O)O)NC(=O)[C@H](Cc3ccc(OCC(=O)O)cc3)NC(=O)[C@H](CN)NC(=O)CSC[C@@H](C(=O)N[C@H](CC(=O)NCCCCCCCCCCC(=O)O)C(N)=O)NC(=O)[C@H]([C@@H](C)O)NC(=O)[C@H](C(C)C)NC(=O)[C@H](CC3CCCCC3)NC(=O)[C@H](CCN)NC(=O)[C@@H](CC(C)C)NC(=O)[C@H](CCCN)NC(=O)[C@H](Cc3ccc(O)cc3)NC(=O)[C@H](Cc3ccc(-c4ccccc4)cc3)NC(=O)[C@H](C(C)C)NC2=O)c1 [Compound 2735] ({CH2CO}-[Dap]Y(Carboxymethyl)D[Phe(3-Me)]V[Bip]Y[Orn][dL][Dab][Cha]VTC[dD](Aun)-NH2; thioether N-14) | 72.4
8 | Cc1cccc(C[C@@H]2NC(=O)[C@H](CC(=O)O)NC(=O)[C@H](Cc3ccc(C(=O)O)cc3)NC(=O)[C@H](Cc3cccs3)NC(=O)CSC[C@@H](C(=O)N[C@@H](CCN)C(=O)NCCCCCCCCCCC(=O)O)NC(=O)[C@H](CO)NC(=O)[C@H](C(C)(C)O)NC(=O)[C@H](CC3CCCCC3)NC(=O)[C@H](CCN)NC(=O)[C@@H](CC(C)C)NC(=O)[C@H](CCCN)NC(=O)[C@H](Cc3ccc(OCC(=O)O)cc3)NC(=O)[C@H](Cc3ccc(-c4ccccc4)cc3)NC(=O)[C@H](Cc3ccc(OCC(=O)O)cc3)NC2=O)c1 [Compound 2179] ({CH2CO}-[2Thi][Phe(4-COOH)]D[Phe(3-Me)]Y(Carboxymethyl)[Bip]Y(Carboxymethyl)[Orn][dL][Dab][Cha][Val(3-OH)]SC[Dab][Aun]-OH; thioether N-14) | 22

Results, then the compound that gave them:

Row | IC50 [nM] | SMILES
9 | 17.2 | CC(C)C[C@@H]1NC(=O)[C@H](CCN)NC(=O)[C@@H](CC(C)C)NC(=O)[C@H](CCN)NC(=O)[C@H](C(C)C)NC(=O)[C@H](Cc2ccc(-c3ccccc3)cc2)NC(=O)[C@H](CC(C)C)NC(=O)[C@H](Cc2c[nH]c3ccccc23)NC(=O)[C@H](CC(=O)O)NC(=O)[C@H](Cc2ccc(OCC(=O)O)cc2)NC(=O)[C@H](Cc2ccc(OCC(=O)O)cc2)NC(=O)CSC[C@@H](C(=O)N[C@H](CCCN)C(=O)NCCOCCOCC(=O)NCCCCCCCCCCC(=O)O)NC(=O)[C@H](CO)NC(=O)[C@H](C(C)C)CC1=O [Compound 3073] ({CH2CO}-Y(Carboxymethyl)Y(Carboxymethyl)DWL[Bip]V[Dab][dL][Dab][X2]SC[dOrn][AEEA][Aun]-OH; thioether N-13)
10 | 6.5 | Cc1cccc(C[C@@H]2NC(=O)[C@H](CC(=O)O)NC(=O)[C@H](Cc3ccc(OCC(=O)O)cc3)NC(=O)[C@H](Cc3ccc(F)cc3)NC(=O)CSC[C@@H](C(=O)N[C@@H](CCN)C(=O)NCCOCCOCC(=O)NCCOCCOCC(=O)NCCCCCCCCCCC(=O)O)NC(=O)[C@H](CCC(=O)O)NC(=O)[C@H](C(C)(C)O)NC(=O)[C@H](CC3CCCCC3)NC(=O)[C@H](CCN)NC(=O)[C@@H](CC(C)C)NC(=O)[C@H](CCCN)NC(=O)[C@H](Cc3ccc(C(=O)O)cc3)NC(=O)[C@H](Cc3ccc(-c4ccccc4)cc3)NC(=O)[C@H](Cc3ccc(C(=O)O)cc3)NC2=O)c1 [Compound 3768] ({CH2CO}-[Phe(4-F)]Y(Carboxymethyl)D[Phe(3-Me)][Phe(4-COOH)][Bip][Phe(4-COOH)][Orn][dL][Dab][Cha][Val(3-OH)]EC[Dab][AEEA][AEEA][Aun]-OH; thioether N-14)
11 | 99.8 | CCC(C)[C@@H]1NC(=O)[C@H](Cc2ccc(-c3ccccc3)cc2)NC(=O)[C@H](C(C)C)NC(=O)[C@H](Cc2c[nH]c3ccccc23)NC(=O)[C@H](CC(=O)O)NC(=O)[C@H](Cc2ccc(OCC(=O)O)cc2)NC(=O)[C@H](C(C)O)NC(=O)CSC[C@@H](C(=O)N[C@H](CCCN)C(=O)NCCOCCOCC(=O)NCCCCCCCCCCC(=O)O)NC(=O)[C@H](CO)NC(=O)[C@H](C(C)C)NC(=O)[C@H](CC(C)C)NC(=O)[C@H](CCN)NC(=O)[C@@H](CC(C)C)NC(=O)[C@H](CCCN)NC1=O (stereo partly drawn) [Compound 3090] ({CH2CO}-[Thr(3ξ)]Y(Carboxymethyl)DWV[Bip][Ile(3ξ)][Orn][dL][Dab]LVSC[dOrn][AEEA][Aun]-OH; thioether N-14)
12 | 17.9 | CC(=O)NCCCC[C@@H]1NC(=O)[C@H](Cc2ccc(-c3ccccc3)cc2)NC(=O)[C@H](C(C)C)NC(=O)[C@H](Cc2cccc(C)c2)NC(=O)[C@H](CC(=O)O)NC(=O)[C@H](Cc2ccc(OCC(=O)O)cc2)NC(=O)[C@H](CCCNC(=N)N)NC(=O)CSC[C@@H](C(=O)N[C@@H](CCN)C(=O)NCCCCCCCCCCC(=O)O)NC(=O)[C@H](C(C)O)NC(=O)[C@H](C(C)(C)C)NC(=O)[C@H](CC2CCCCC2)NC(=O)[C@H](CCN)NC(=O)[C@@H](CC(C)C)NC(=O)[C@H](CCCN)NC1=O (stereo partly drawn) [Compound 3560] ({CH2CO}-RY(Carboxymethyl)D[Phe(3-Me)]V[Bip]K(Ac)[Orn][dL][Dab][Cha][Tle][Thr(3ξ)]C[Dab][Aun]-OH; thioether N-14)
13 | 20.8 | CC(C)C[C@H]1NC(=O)[C@H](CCCN)NC(=O)[C@H](C(C)C)NC(=O)[C@H](Cc2ccc(-c3ccccc3)cc2)NC(=O)[C@H](C(C)C)NC(=O)[C@H](Cc2c[nH]c3ccccc23)NC(=O)[C@H](CC(=O)O)NC(=O)[C@H](CCCCNC(N)=O)NC(=O)[C@H](Cc2ccc(OCC(=O)O)cc2)NC(=O)CSC[C@@H](C(=O)NCC(=O)NCCOCCOCC(=O)N[C@@H](CCCN)C(=O)NCCCCCCCCCCCC(=O)O)NC(=O)[C@H](CN)NC(=O)[C@H](C(C)C)NC(=O)[C@H](CC2CCCCC2)NC(=O)[C@H](CCN)NC1=O [Compound 3169] ({CH2CO}-Y(Carboxymethyl)[hCit]DWV[Bip]V[Orn][dL][Dab][Cha]V[Dap]CG[AEEA][Orn][12Ado]-OH; thioether N-14)
